The target of experiment [1] is T1, cGMP-PDE V (Homo sapiens, UniProt O76074).
T1 construct: The cGMP-PDE and other PDE isozymes were isolated from cardiovascular tissues (heart and aorta); from tissue; host or cells: cardiovascular tissues (heart and aorta) of various animal species and man
The experiment is described as follows: c-GMP-PDE V inhibitory activity (cyclic nucleotide hydrolysis by isolated PDE isozymes). The experiment is classed as biochemical, various animal species and man. The settings on record: for inhibition at 10 µM: read-out: Percent Inhibition cGMP-PDE V. The method, then:
The cGMP-PDE and other PDE isozymes were isolated from cardiovascular tissues (heart and aorta) of various animal species and man by anion-exchange and affinity chromatography as described by Silver et al., Sec. Messeng. Phos. 13: 13-25, 1991; PDE activity, in the presence and absence of test compounds was determined essentially as described by Thompson et al., Adv. Cyclic Nucleotide Res. 10: 69-92. To determine the potency and selectivity of compounds as PDE inhibitors, compounds are screened for their effect on cyclic nucleotide hydrolysis at 10 μM. If ≥50% inhibition of PDE activity is observed, an IC50 value (concentration of compound causing 50% reduction in PDE activity) and corresponding 95% confidence intervals are generated. The IC50 values are calculated from concentration-response curves as described by Tallarida and Murray, Manual of Pharmacologic Calculations with Computer Programs, Procedure 8, Graded Dose-response, pp. 14-19, Springer-Verlag, New York, 1981.

Experiment [2] has as its system Spontaneously hypertensive rats (SHR). The experiment is described as follows: antihypertensive activity in conscious spontaneously hypertensive rats (SHR), iv. Type of experiment: in vivo, rat. As to conditions: for ED25: Rattus norvegicus, 5 min, iv, 5 minutes after each cumulative dose, read-out: SHR iv ED25, mean arterial pressure. The method, then:
After a 2 day recovery from surgery, three baseline blood pressure measurements were made at 5 min intervals in conscious SHR. Compounds to be tested or vehicle were then administered intravenously in a dose-dependent manner (0.3-10 mg base/kg) while arterial pressure was recorded continuously on a polygraph. The mean arterial pressure response was measured 5 minutes after the administration of each dose of the test compound and the next dose given in a cumulative dose fashion. The response to each dose of the test compound was calculated as the difference from the mean of the three baseline measurements.

In a further experiment the test system is interferon. The settings on record: Crenshaw et al.; cited from earlier work.
In experiment [3] the target is T1, cGMP-PDE V. Nature of the experiment: c-GMP-PDE V inhibitory activity (cyclic nucleotide hydrolysis by isolated PDE isozymes). The settings on record: read-out: Percent Inhibition cGMP-PDE V. The experiment is classed as biochemical, various animal species and man.

The structures appear in SMILES notation. Where a name gives a salt, the structure may show the parent alone.

Usually IC50 stands for the concentration at which inhibition is half-maximal. The inhibition is the share of the control response that was lost under treatment.

For the compound `CCn1ncc2c(NCc3ccccc3)c3ccccc3nc21` [1(a), 1-ethyl-N-(phenylmethyl)-1H-pyrazolo[3,4-b]quinolin-4-amine], the IC50 on cGMP-PDE V [1] was determined as 210 nM. The ED25 in experiment [2] came out at 25 mg/kg.

Regarding `Cc1nn(C)c2nc3ccccc3c(NCCCNC34CC5CC(CC(C5)C3)C4)c12` [N-(1,3-dimethyl-1H-pyrazolo[3,4-b]quinolin-4-yl)-N'-tricyclo[3.3.1.1^3,7]dec-1-yl-1,3-propane diamine], the “activity in the interferon assay” value in the experiment on interferon is “inactive”.

The compound `CCn1ncc2c(NCc3ccc(OC)c(OC)c3)c3ccccc3nc21` [Example 7, 1-ethyl-N-(3,4-dimethoxyphenylmethyl)-1H-pyrazolo[3,4-b]quinolin-4-amine] showed an IC50 at cGMP-PDE V [1] of 180 nM.

As to `CCn1ncc2c(NCc3ccc(O)cc3)c3cc(O)ccc3nc21` [Example 24, 1-ethyl-6-hydroxy-N-(4-hydroxyphenylmethyl)-1H-pyrazolo[3,4-b]quinolin-4-amine-CH3 SO3 H], at cGMP-PDE V [1], the concentration for half-maximal inhibition (IC50) came to 120 nM. Besides, the “SHR iv % change in mean arterial pressure” value (“SHR iv % change” for short) is reported as -10% in experiment [2] (1 mg/kg iv), -9% in experiment [2] (3 mg/kg iv) and -15% in experiment [2] (10 mg/kg iv).

In the case of `Cc1nn(C)c2nc3ccccc3c(NCc3ccccc3N(C)C)c12` [N-[[2-(dimethylamino)phenyl]methyl]-1,3-dimethyl-1H-pyrazolo[3,4-b] quinolin-4-amines], the “activity in the interferon assay” value in the experiment with interferon was “inactive”.

As to `CCn1ncc2c(NCc3ccco3)c3ccccc3nc21` [Example 16, 1-ethyl-N-(2-furanylmethyl)-1H-pyrazolo[3,4-b]quinolin-4-amine], the “SHR iv % change” value in experiment [2] (10 mg/kg iv) is -16%.

Compound `CCn1ncc2c(NCc3ccc(O)cc3)c3ccccc3nc21` [18(a), 1-ethyl-N-(4-hydroxyphenylmethyl)-1H-pyrazolo[3,4-b]quinolin-4-amine CH3 SO3 H] gave an IC50 against cGMP-PDE V [1] of 91 nM.

Turning to `CCn1ncc2c(NCc3cccc(O)c3)c3ccccc3nc21` [Example 14, 1-ethyl-N-(3-hydroxyphenylmethyl)-1H-pyrazolo[3,4-b]quinolin-4-amine·2 CH3 SO3 H], the half-inhibitory concentration (IC50) against cGMP-PDE V [1] worked out at 86 nM.

Consider `CCn1ncc2c(NCc3ccccn3)c3ccccc3nc21` [Example 21, 1-ethyl-N-(2-pyridinylmethyl)-1H-pyrazolo[3,4-b]quinolin-4-amine-2CH3SO3 H], for which the inhibition at 10 µM at cGMP-PDE V [1] is 97%. Moreover, on cGMP-PDE V [3], the inhibition at 0.1 µM is 27% and the inhibition at 1 µM stood at 58%.

`CCn1ncc2c(NC3CCc4ccccc43)c3ccccc3nc21` (centres unmarked) [Example 22, 1-ethyl-N-(1-indanyl)-1H-pyrazolo[3,4-b]quinolin-4-amine·CH3 SO3 H]: on cGMP-PDE V [1], the inhibition at 10 µM was determined as 94%. Moreover, at cGMP-PDE V [3], the inhibition at 0.1 µM worked out at 34% and the inhibition at 1 µM is 75%.

For `CCn1ncc2c(NCc3cccc(O)c3)c3ccccc3nc21` [Example 13, 1-ethyl-N-(3-hydroxyphenylmethyl)-1H-pyrazolo [3,4-b]quinolin-4-amine], the 50% inhibitory concentration (IC50) against cGMP-PDE V [1] was found to be 150 nM.

With `Cc1nn(C)c2nc3ccccc3c(NCc3cccnc3)c12` [N-(3-pyridinylmethyl), N-(3-pyridinylmethyl)-1,3-dimethyl-1H-pyrazolo[3,4-b] quinolin-4-amine], the “activity in the interferon assay” value in the experiment on interferon is “inactive”.

In the case of `CCn1ncc2c(NCc3cccc(OC)c3)c3ccccc3nc21` [Example 11, 1-ethyl-N-(3-methoxyphenylmethyl)-1H-pyrazolo[3,4-b]quinolin-4-amine], the half-inhibitory concentration (IC50) at cGMP-PDE V [1] amounted to 450 nM.

Turning to `CCn1ncc2c(NCc3cccnc3)c3ccccc3nc21` [Example 19, 1-ethyl-N-(3-pyridinylmethyl)-1H-pyrazolo[3,4-b]quinolin-4-amine ·2CH3 SO3 H], at cGMP-PDE V [1], the inhibition at 10 µM was determined as 75%. At cGMP-PDE V [3], the inhibition at 0.1 µM stood at 10% and the inhibition at 1 µM is 43%.

Consider `CCn1ncc2c(NCc3ccc(C#N)cc3)c3ccccc3nc21` [Example 10, 1-ethyl-N-(4-cyanophenylmethyl)-1H-pyrazolo[3,4-b]quinolin-4-amine], for which the inhibition at 10 µM at cGMP-PDE V [1] is 57%. The inhibition at 1 µM at cGMP-PDE V [3] was 0%.

Consider `CCn1ncc2c(NCc3ccc(OCCN4CCOCC4)cc3)c3ccccc3nc21` [15(c), 1-ethyl-N-[4-[2-(4-morpholinyl)ethoxy]phenylmethyl]-1H-pyrazolo[3,4-b]quinolin-4-amine], for which, at cGMP-PDE V [1], the inhibition at 10 µM was determined as 34%. On cGMP-PDE V [3], the inhibition at 0.1 µM came to 0% and the inhibition at 1 µM is 20%.

Take `CCn1ncc2c(NCc3ccccc3)c3ccc(O)cc3nc21` [Example 6, 1-ethyl-7-hydroxy-N-(phenylmethyl)-1H-pyrazolo[3,4-b]quinolin-4-amine]: the inhibition at 10 µM on cGMP-PDE V [1] came out at 85%. At cGMP-PDE V [3], the inhibition at 0.1 µM was determined as 17% and the inhibition at 1 µM was 50%.

In turn, `CCn1ncc2c(NCCc3ccccc3)c3ccccc3nc21` [2(c), 1-ethyl-N-(phenylethyl)-1H-pyrazolo[3,4-b]quinoline-4 amine] returned a half-maximal inhibitory concentration (IC50) at cGMP-PDE V [1] of 4200 nM. Further, in experiment [2], the ED25 amounted to 16.5 mg/kg.

Turning to `CCn1ncc2c(NCc3ccncc3)c3ccccc3nc21` [Example 8, 1-ethyl-N-(4-pyridinylmethyl)-1H-pyrazolo[3,4-b]quinolin-4-amine], the inhibition at 10 µM on cGMP-PDE V [1] was found to be 50%. Besides, on cGMP-PDE V [3], the inhibition at 0.1 µM is 0% and the inhibition at 1 µM was determined as 5%.

In the case of `CCn1nc(C)c2c(NCc3ccccc3)c3ccccc3nc21` [9(d), 1-ethyl-3-methyl-N-(phenylmethyl)-1H-pyrazolo[3,4-b]quinolin-4-amine·HCl], the IC50 against cGMP-PDE V [1] is 170 nM.

Regarding `Cc1nn(C)c2nc3ccccc3c(NC3CC3)c12` [N-cyclopropyl, N-cyclopropyl-1,3-dimethyl-1H-pyrazolo[3,4-b] quinolin-4-amine], the “activity in the interferon assay” value with interferon is “inactive”.

The compound `Cc1nn(C)c2nc3ccccc3c(NCc3ccccc3)c12` [Example 12(c), 1,3-dimethyl-N-(phenylmethyl)-1H-pyrazolo[3,4-b]quinolin-4-amine] registered an IC50 against cGMP-PDE V [1] of 1140 nM. This counts as single-digit micromolar.

Compound `CC(C)n1ncc2c(NCc3ccccc3)c3ccccc3nc21` [4(c), 1-isopropyl-N-(phenylmethyl)-1H-pyrazolo[3,4-b]quinolin-4-amine] gave an IC50 at cGMP-PDE V [1] of 180 nM. This IC50 is about 6.3-fold lower than that of the compound before.

At cGMP-PDE V [1], `CCn1ncc2c(NCc3ccc(OC)cc3)c3cc(OC)ccc3nc21` [23(c), 1-ethyl-6-methoxy-N-(4-methoxyphenylmethyl)-1H-pyrazolo[3,4-b]quinolin-4-amine·CH3 SO3 H] yielded an IC50 of 14 nM. Moreover, the “SHR iv % change” value in experiment [2] (1 mg/kg iv) was -7%; in experiment [2] (3 mg/kg iv), -4%.

As for `CCn1ncc2c(NCc3ccc(O)cc3)c3ccccc3nc21` [18(b), 1-ethyl-N-(4-hydroxyphenylmethyl)-1H-pyrazolo[3,4-b]quinolin-4-amine], the inhibition at 10 µM at cGMP-PDE V [1] was 78%. Further, on cGMP-PDE V [3], the inhibition at 0.1 µM came out at 63% and the inhibition at 1 µM came out at 82%.

For `CCn1ncc2c(NCc3ccccc3)c3ccc(OC)cc3nc21` [5(e), 1-ethyl-7-methoxy-N-(phenylmethyl)-1H-pyrazolo[3,4-b]quinolin-4-amine], the inhibition at 10 µM at cGMP-PDE V [1] stood at 85%. Besides, on cGMP-PDE V [3], the inhibition at 0.1 µM turned out to be 14% and the inhibition at 1 µM stood at 54%.

Compound `CCn1ncc2c(NCc3ccc(OC)cc3)c3ccccc3nc21` [Example 3, 1-ethyl-N-(4-methoxyphenylmethyl)-1H-pyrazolo[3,4-b]quinolin-4-amine·HCl·1/2H2 O] showed an IC50 on cGMP-PDE V [1] of 89 nM.

The compound `CCn1ncc2c(N(C)Cc3ccccc3)c3ccccc3nc21` [Example 20, 1-ethyl-N-(methyl)-N-(phenylmethyl)-1H-pyrazolo[3,4-b]quinolin-4-amine·CH3 SO3 H] gave an IC50 on cGMP-PDE V [1] of 1260 nM. Compared with the last compound, the IC50 is about 14-fold higher.

As to `Cc1nn(C)c2nc3ccccc3c(NC34CC5CC(CC(C5)C3)C4)c12` [N-tricyclo[3.3.1.1^3,7]dec-1-yl, N-tricyclo[3.3.1.1^3,7]dec-1-yl-1,3-dimethyl-1H-pyrazolo[3,4-b] quinolin-4-amine], the “activity in the interferon assay” value with interferon was “inactive”.

The values above are taken from patent publication US6008226A, “Substituted N-arylmethyl and heterocylylmethyl-1H-pyrazolo[3,4-b]quinolin-4-amines and compositions and methods of use thereof” (Sanofi-Synthelabo, priority 1998, dated 1999).
